{"source": "patent US10703761B2", "about": "“Bile acid receptor modulators and methods of use thereof” (City of Hope, priority 2016, dated 2020)", "key": {"TGR5": {"biological_target": "T1, TGR5 (Homo sapiens, UniProt Q8TDU6)", "T1 construct": "expressed in transfected cells", "T1 sequence (Q8TDU6 1-330)": "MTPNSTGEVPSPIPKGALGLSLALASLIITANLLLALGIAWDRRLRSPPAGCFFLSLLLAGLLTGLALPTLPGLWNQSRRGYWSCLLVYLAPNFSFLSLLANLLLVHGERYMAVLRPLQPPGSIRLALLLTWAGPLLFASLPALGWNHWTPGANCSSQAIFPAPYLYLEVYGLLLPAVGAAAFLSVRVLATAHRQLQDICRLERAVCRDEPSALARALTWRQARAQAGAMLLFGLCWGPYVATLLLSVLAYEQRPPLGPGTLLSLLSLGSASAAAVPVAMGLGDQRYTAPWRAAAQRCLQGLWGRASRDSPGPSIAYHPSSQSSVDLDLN", "test": "TGR5 luciferase reporter (pCRE-luc) / cAMP assay in HEK293 cells overexpressing TGR5", "assay_type": "cell-based", "method": "FIG. 1(A-C): FIG. 1(A) Chemical structure of berberine. FIG. 1(B) HEK293 cells lacking or stably-overexpressing TGR5 were treated with increasing doses of berberine for 16 h. TGR5-reporting activity was evaluated by luciferase assay (n=8). FIG. 1(C) The ability of berberine to activate TGR5 and FXR was evaluated in comparison to the synthetic FXR agonist GW4064. Ligands were used at a concentration of […] (n=4). Statistical analysis was performed using paired t-test. **p<0.05, ***p<0.001.\nFIG. 2(A) HEK293 cells lacking or overexpressing TGR5 were treated with increasing doses of berberine for 16 hours and TGR5-reporting activity was evaluated using luciferase assays. FIG. 2(B) Ability of berberine to activate metabolic nuclear receptors was evaluated in comparison to native ligands. All ligands were used at a 10 μM concentration.\nTo potentially identify selective TGR5 modulators via a novel strategy, we synthesized and screened a focused chemical compounds library to search for derivatives that have higher affinity and/or higher selectivity to effectively modulate TGR5 activity in vivo. A focused small chemical compound library was evaluated in in vitro TGR5 assays to search for berberine-derived agonists that have higher affinity, potency, and/or higher selectivity for TGR5. The receptor binding assay was performed by measuring the level of cyclic AMP (cAMP) using TR-FRET (time-resolved fluorescence resonance energy transfer) assay. The level of intracellular cAMP was determined with Lance kit (PerkinElmer). Lithocholic acid was used as control ligand. Z′ factor was used to validate assays. Non-linear regression curves, without constraints, was performed by using four parameter equation and GraphPad Prism Software (GraphPad Inc.) to obtain the EC50 values. All drugs tested positive with TR-FRET for TGR5 binding affinities were evaluated in cell-based assays, using HEK293 cells stably over expressing human TGR5 transfected with the cAMP-sensitive reporter plasmid pCRE-Luc. Compounds were initially tested at doses of […] and the relative fold activation on TGR5 was determined. […]"}, "[1]": {"conditions": "oral 1.0 g/day/person for 3 months; cited from earlier work"}, "NCI-H716 cells": {"system": "NCI-H716 cells", "conditions": "cited from earlier work"}, "DIO mice": {"system": "DIO mice", "test": "Hepatic lipid accumulation, Oil Red O staining", "assay_type": "in vivo, mouse", "method": "FIG. 9(A). lean mice. FIG. 9(B). DIO mice, FIG. 9(C). berberine, and FIG. 9(D). DY319. Intracellular lipids were stained with Oil Red O and visualized by phase-contrast microscopy (×200 magnification).\nCells on day 7 were washed twice with PBS, fixed with 10% neutral buffered formalin for 1 h at room temperature, washed with PBS and then dried completely. The fixed cells were stained with Oil Red O in an isopropanol/distilled water (6:4) solution for 30 min at room temperature and then washed twice with distilled water. The stained lipid droplets were observed, and microscopic images were obtained from randomly selected fields under a phase contrast microscope (AX70; Olympus, Tokyo, Japan) equipped with a digital camera and processed using ImagePro Plus software (Media Cybernetics, Silver Spring, Md., USA)."}}, "note": "pEC50: −log10 of the molar value. Entries after “also recorded” stand apart in the source; their conditions may differ.", "data": [{"molecule": "COc1ccc2cc3[n+](cc2c1OC)CCc1cc2c(cc1-3)OCO2", "note": "[berberine]", "values": [{"measurement": "TGR5-reporting effect in cells lacking TGR5", "setting": "TGR5; HEK293 cells lacking TGR5", "result": "lost"}, {"measurement": "TGR5 activation", "setting": "TGR5; HEK293 cells overexpressing TGR5, 16 h", "result": "is a ligand for the G protein-coupled receptor TGR5; also recorded: can activate the bile acid receptor TGR5"}, {"measurement": "pEC50", "setting": "TGR5; unpublished data, read-out: TGR5 agonist EC50", "result": 6.34}, {"measurement": "Efficacy and safety in type 2 diabetes and dyslipidemia", "setting": "[1]", "result": "effective and safe"}, {"measurement": "Prohormone convertase 3 and proglucagon mRNA expression", "setting": "NCI-H716 cells", "result": "promoted both prohormone convertase 3 and proglucagon mRNA expression"}, {"measurement": "GLP-1 release", "setting": "NCI-H716 cells; in vitro", "result": "modulated GLP-1 release; also recorded: concentration-dependently stimulated GLP-1 release"}, {"measurement": "Hepatic lipid accumulation", "setting": "DIO mice", "result": "prevent hepatic lipid accumulation"}]}]}
